The text below walks through data of patent publication US11014884B2 (Global Blood Therapeutics, Inc., priority 2018, dated 2021).

The target in series [1] is T1, Human CO-HbS (Homo sapiens, UniProt P69905).
T1 construct: Purified HbS was prepared from blood using a combination of gel filtration and anion exchange chromatography; from tissue; host or cells: blood
In words: Crystallography of CO-liganded HbS with compound. Conditions: CO-HbS 0.8 mM, compound 1 mM. As for the experimental part: Purified HbS was prepared from blood using a combination of gel filtration and anion exchange chromatography. Following preparation, the purified HbS solution was concentrated to 1 mM in a volume of 1 mL using a Vivaspin 20 concentrator (GE healthcare) via centrifugation at room temperature in an Eppendorf 5810 R centrifuge. The concentrated HbS solution was then buffer exchanged into potassium phosphate buffer by mixing 1 mL of concentrated HbS solution with 20 mL of 1.8 M potassium phosphate buffer, pH 7.4 and re-concentrating back to 1 mL using a Vivaspin 20. This process was repeated twice and aliquots of the resulting HbS solution were flash frozen using liquid nitrogen and stored at −80° C. To prepare HbS-CO, purified HbS was first saturated with CO for five hours before it was buffer exchanged into 20 mM Hepes buffer, pH 7.4, and concentrated to 3 mM.
Human CO-HbS was crystallized using sitting drop vapor diffusion method. Freshly prepared CO-HbS at 0.8 mM and buffered with 20 mM HEPES pH 7.4 was mixed with compounds (specifically, Compound 1 and Compound 2) at a final concentration of 1 mM. […] The appearance of hemoglobin crystals was monitored visually and microscopically every 48-72 hours after beginning of the experiments. […]

Series [2] deals with T2, hemoglobin (Homo sapiens, UniProt P69905).
T2 construct: from tissue; host or cells: whole blood (red blood cells)
In words: Whole blood assay: oxygen equilibrium curves (Hemox Analyzer), change in p50. Format: cell-based. Conditions: whole blood 20% Hct (1 mM Hb), compound 1 mM, equimolar to hemoglobin, 1 h at 37° C. As for the experimental part: Oxygen equilibrium curves (OECs) were collected using a TCS Hemox Analyzer (TCS Scientific Company, New Hope, Pa., USA) to measure changes in the binding affinity of 02 to Hb. Whole blood was incubated for 1 h at 37° C. with the indicated compounds in an equimolar ratio of hemoglobin to compound and diluted into TES (2-[[1,3-dihydroxy-2-(hydroxymethyl)propan-2-yl]amino]ethanesulfonic acid)/saline buffer prior to measurements. For example, for whole blood at 20% hematocrit [Hct], which corresponds to 1 mM Hb, a compound concentration of 1 mM was used (for example, for compounds 1-53), and the incubated sample diluted 50- to 100-fold. The concentration for compound 54 was 1.7 mM and in equimolar ratio to hemoglobin. The diluted samples were then oxygenated with compressed air within the Hemox Analyzer, and the OECs were collected during deoxygenation as previously described (Guarnone et al., Haematologica, 1995, 80, 426-430). p50 (partial pressure of 02 at which Hb is 50% saturated with 02) values were obtained using a non-linear regression analysis. Percentage change in p50 [Δp50(%)] was calculated as follows: Δp50(%)=[(p50 of control)−p50 with compound)/p50 control]×100.

Series [3] is described as follows: Pharmacokinetics in rats following 10 mg/kg oral administration. It counts as in vivo. Particulars: Sprague-Dawley, rat, PO 10 mg/kg. As for the experimental part: The pharmacokinetic (PK) profile of Compound 2 was characterized in Sprague-Dawley rats following oral administration of 10 mg/kg. Blood and plasma samples were serially collected from each animal up to 240 h post-dose and analyzed for their concentrations using LC/MS. The analytical range was 100 to 100,000 ng/ml for both plasma and blood samples. Blood and plasma concentrations of Compound 2 were analyzed by non-compartmental analysis using Phoenix WinNonlin software (version 6-4; Pharsight Inc., Cary, N.C., USA) to obtain pharmacokinetic parameters, including half-life (T½) and area under the curve (AUC). AUClast refers to the area under the curve calculated from t=0 to the last detectable time-point. Blood to plasma concentration ratio was calculated from a ratio of AUClast in blood divided by AUClast in plasma.
Blood pharmacokinetic parameters in rat were determined in individual animals and reported as mean.

T2 sequence (P69905 2-142 limits assumed): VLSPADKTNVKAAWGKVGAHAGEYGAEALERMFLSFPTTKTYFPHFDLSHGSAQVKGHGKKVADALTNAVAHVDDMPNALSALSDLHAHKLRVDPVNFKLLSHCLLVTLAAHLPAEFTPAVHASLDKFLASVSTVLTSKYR
T2 sequence (P68871 2-147 partner limits assumed): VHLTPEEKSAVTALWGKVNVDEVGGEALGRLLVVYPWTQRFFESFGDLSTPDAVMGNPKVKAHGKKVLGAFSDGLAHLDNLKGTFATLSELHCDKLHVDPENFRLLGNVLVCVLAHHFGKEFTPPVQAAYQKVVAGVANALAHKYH
T1 sequence (P69905 2-142 limits assumed): as the sequence (P69905 2-142 limits assumed) above

`O=Cc1c(O)cccc1OC[C@@H]1CCCCN1C(=O)c1cccc(O)c1C=O` [Compound 1, 2-[(2S)-2-[(2-formyl-3-hydroxyphenoxy)methyl]piperidine-1-carbonyl]-6-hydroxybenzaldehyde]: the “binding sites on hemoglobin (crystal structure)” value in series [1] is reported as “two distinct areas of hemoglobin”. Moreover, the “Delta-p50 (%)” value in series [2] is 75.8%.
As a reminder, the AUC(0-t) is the area under the concentration-time curve up to a stated or last time point. For the compound `O=Cc1ccccc1C(=O)N1CCCC[C@H]1COc1cccc(O)c1C=O` [Compound 2, 2-{[(2S)-1-(2-formylbenzoyl)piperidin-2-yl]methoxy}-6-hydroxybenzaldehyde], the “binding sites on hemoglobin (crystal structure)” value in series [1] is on record as “two distinct areas of hemoglobin”. Moreover, in series [3] (blood and plasma, AUClast in blood divided by AUClast in plasma), the blood plasma ratio was determined as 937. The compound further came in with an AUC(0-t) in series [3] (whole blood, blood, 0.5% MC, mean of N=3) of 239 µg·h/mL. For the same compound, the half-life in series [3] (whole blood, blood, 0.5% MC, mean of N=3, read-out: T½ (converted)) is 187 h. Also, in series [2], the “Delta-p50 (%)” value came out at 78.3%.
